Data taken from article PMC10531095, “Photonics of Some Monomethine Cyanine Dyes in Solutions and in Complexes with Biomolecules” (International Journal of Molecular Sciences, 2023).

What was measured:
dsDNA = assay: Thermal dissociation (melting) of dsDNA in the presence of MCD; format: binding, chick; conditions: cdsDNA~6 × 10^−5 mol L^−1, cMCD~6 × 10^−6 mol L^−1; for Tm(dsDNA), melting point of dsDNA in the presence of MCD: without cyanines 80 °C
Excerpt: It is known that noncovalent ligand–dsDNA interactions upon the intercalative type of binding lead to additional stabilization of the biopolymer, which is reflected in an increase in the temperature range of thermal dissociation of the DNA double helix. From the data on the thermal dissociation of dsDNA, it is easy to obtain the melting point Tm(dsDNA) (at which 50% dsDNA is denatured). Note that Tm(dsDNA) depends on its GC composition, molecular length, and degree of strand complementarity; long duplexes with fewer base mismatches will have higher Tm(dsDNA) than short duplexes with more mismatches.
Melting of the DNA double helix was measured spectrophotometrically at t = […], the normalized temperature dependences of the absorbances of the samples at λabs = 260 nm are shown in Figure 8.
Single-stranded form of DNA (single-stranded DNA; ssDNA) was obtained according to the method described in [74]. The concentrations of DNA and the dyes were controlled spectrophotometrically. Molar extinction coefficient of dsDNA (ε, L⋅mol^−1⋅cm^−1) was taken to be 13,200 L mol^−1 cm^−1 (per base pair); for ssDNA, ε = 9045 L mol^−1 cm^−1 (per one base) was used. For MCD 1 and 2 in an aqueous buffer solution, we used extinction coefficients ε = 40,000 and 68,000 L mol^−1 cm^−1, respectively, which were taken from. For MCD 3 and 4, the molar extinction coefficients in ethanol solution were 69,200 and 49,000 L mol^−1 cm^−1 (taken from). […] Spectral fluorescent characteristics of MCD in complexes with biomacromolecules were studied by titration of dye solutions (see Supplementary Materials). The thermal dissociation (“melting”) of dsDNA in the presence of MCD was studied spectrophotometrically (λabs = 260 nm), the sample was heated (t° = 30–95 °C) using Peltier cells, and the temperature was controlled using a thermocouple. Melting points tm, corresponding to 50% hyperchromia of DNA samples were obtained.

HSA = target: T1, HSA (Homo sapiens, UniProt P02768); assay: FRET parameters between HSA donor fluorophores and MCD acceptors; format: binding; conditions: MCD acceptor
T1 construct: purchased Sigma-Aldrich
Excerpt: Quenching of intrinsic fluorescence of HSA can occur, in particular, due to energy transfer (Förster resonance energy transfer, FRET) from protein donor fluorophores to MCD acceptor molecules. In the MCD–HSA system, complexation brings acceptors and donors closer together and facilitates FRET. FRET is likely because HSA fluorescence and MCD absorption spectra overlap. For MCD and HSA, the overlap integrals J (see Equation (S7) in Supplementary Materials) were obtained in the order of 2.0–7.0 × 10^15 mol^−1 cm^−1 nm^4 (for MCD 4 see Figure S15 in Supplementary Materials). […] This is probably due to the strong aggregation of MCD 3 in the presence of HSA, which decreases the concentration of monomeric dye molecules active in fluorescence quenching (see Supplementary Materials, Figure S8). […] But as the dye concentration increases, its aggregation is built up steeply, and the fluorescence quenching diminishes.
The parameters of FRET between albumin donor chromophores (tyrosine and tryptophan amino acid residues of HSA) and acceptors (MCD 1–4 molecules) were determined from the spectral fluorescent data using the standard formulae for the spectral overlap integral J (M^−1 cm^−1 nm^4) and critical radius of energy transfer R0 (see Supplementary Material, Equations (S7) and (S8), respectively). […]

T1 sequence (P02768 25-609): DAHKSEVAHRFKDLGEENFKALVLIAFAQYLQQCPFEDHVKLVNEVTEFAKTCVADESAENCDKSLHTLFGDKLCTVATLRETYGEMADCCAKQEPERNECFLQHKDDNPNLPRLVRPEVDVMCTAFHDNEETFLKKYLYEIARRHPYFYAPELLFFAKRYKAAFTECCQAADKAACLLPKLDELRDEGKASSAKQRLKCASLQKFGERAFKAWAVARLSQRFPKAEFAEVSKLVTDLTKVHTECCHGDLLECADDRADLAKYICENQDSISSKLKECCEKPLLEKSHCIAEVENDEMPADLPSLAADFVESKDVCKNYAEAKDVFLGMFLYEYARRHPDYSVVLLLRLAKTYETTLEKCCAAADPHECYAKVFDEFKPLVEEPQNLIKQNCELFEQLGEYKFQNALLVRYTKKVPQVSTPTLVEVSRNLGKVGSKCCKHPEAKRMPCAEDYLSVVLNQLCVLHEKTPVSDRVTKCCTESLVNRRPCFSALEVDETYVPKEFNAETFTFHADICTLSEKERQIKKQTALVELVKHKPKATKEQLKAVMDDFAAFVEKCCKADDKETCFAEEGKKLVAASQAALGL

| SMILES | Tm(dsDNA), melting point of dsDNA in the presence of MCD (dsDNA) | growth of Tm(dsDNA) (dsDNA) | R0, Förster critical radius (HSA) |
| --- | --- | --- | --- |
| CC[N+](CC)(CC)CCC[n+]1ccc(/C=C2\Sc3ccccc3N2C)c2ccc(O)cc21 [MCD 1] | 85–86 °C |  |  |
| CCN1/C(=C/c2sc3ccccc3[n+]2CC)Sc2ccccc21 [MCD 3] | 82 °C | 2–3 °C | ~ 50 Å |
| CCN1/C(=C/c2ccc3ccccc3[n+]2CC)C=Cc2ccccc21 [MCD 4] | 83 °C | 2–3 °C |  |
